Values of other authors, collected in patent US20100249031A1, “Nutritional Composition Comprising Curcuminoids and Methods of Manufacture” (priority 2009, published 2010).

What was measured:
[1] = percentage of ingested curcuminoid metabolized by the body
[2] = system: Microtubule Assembly; settings: @ 40 μM

COc1cc(/C=C/C(O)=C/C(=O)/C=C/c2ccc(O)cc2)ccc1O [DMC, demethoxycurcumin]
Metabolic Recovery [1]: ~50%

COc1cc(/C=C/C(=O)CC(=O)/C=C/c2ccc(O)c(OC)c2)ccc1O [Curcumin, curcumin]
Inhibition of Microtubule Assembly [2]: 50% @

O=C(/C=C/c1ccc(O)cc1)CC(=O)/C=C/c1ccc(O)cc1 [BDMC, bisdemethoxycurcumin]
Metabolic Recovery [1]: ~75%
